# Results from patent US20070249670A1, “Glycogen Phosphorylase Inhibitor Compounds and Pharmaceutical Compositions Thereof” (SMITHKLINE BEECHAM CORPORATION, priority 2004, published 2007).
# Target: T1, human liver glycogen phosphorylase a (HLGPa) (Homo sapiens, UniProt P06737)
# T1 construct: creating a full-length cDNA fused at the 5′ end to codons for methionine-glycine-alanine-histidine; 6xHis tag (leader Met-Gly-Ala-His6-Gly-Gly) (N); made in house; host or cells: E. coli (bacterial expression plasmid pTXK1007LTev)
# T1 sequence (P06737 2-847 limits assumed): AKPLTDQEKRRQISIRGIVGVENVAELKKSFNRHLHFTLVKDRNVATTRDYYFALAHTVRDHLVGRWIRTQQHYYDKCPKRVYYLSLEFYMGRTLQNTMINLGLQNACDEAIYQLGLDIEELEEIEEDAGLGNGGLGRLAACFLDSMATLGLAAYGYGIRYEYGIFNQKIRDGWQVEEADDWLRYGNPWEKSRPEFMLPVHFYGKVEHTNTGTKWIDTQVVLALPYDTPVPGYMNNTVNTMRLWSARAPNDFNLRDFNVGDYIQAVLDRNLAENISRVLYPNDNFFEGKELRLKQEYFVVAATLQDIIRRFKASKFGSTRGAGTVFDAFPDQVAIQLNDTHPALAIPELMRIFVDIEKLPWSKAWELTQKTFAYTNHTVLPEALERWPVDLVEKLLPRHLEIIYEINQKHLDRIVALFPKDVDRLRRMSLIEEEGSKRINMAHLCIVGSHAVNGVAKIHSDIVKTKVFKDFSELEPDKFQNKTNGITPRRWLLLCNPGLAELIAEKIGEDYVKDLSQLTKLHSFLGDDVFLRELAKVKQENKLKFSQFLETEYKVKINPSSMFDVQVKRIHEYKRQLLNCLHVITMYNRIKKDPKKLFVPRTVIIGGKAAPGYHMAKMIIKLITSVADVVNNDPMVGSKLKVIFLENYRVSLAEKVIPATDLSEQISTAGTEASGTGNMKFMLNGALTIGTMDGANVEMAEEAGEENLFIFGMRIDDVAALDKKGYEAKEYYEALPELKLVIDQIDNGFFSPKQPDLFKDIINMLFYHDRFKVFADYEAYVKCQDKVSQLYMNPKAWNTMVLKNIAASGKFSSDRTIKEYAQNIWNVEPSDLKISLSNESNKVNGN
# Experiment: Human liver glycogen phosphorylase a enzymatic activity assay (coupled, fluorescent resorufin readout, with and without 10 mM glucose)
# Type: biochemical
# [1] = human liver glycogen phosphorylase a, table does not say whether with or without 10 mM glucose
# [2] = human liver glycogen phosphorylase a enzymatic activity assay
Structure (SMILES),IC50 [1] [nM],IC50 [2] [nM]
"O=C(Nc1cc(-c2ccc(F)cc2)sc1C(=O)O)Nc1c(Cl)cccc1Cl [Example 385, 3-({[(2,6-dichlorophenyl)amino]carbonyl}amino)-5-(4-fluorophenyl)-2-thiophenecarboxylic acid]",1140,–
"COC(=O)[C@@H](NC(=O)c1sc(-c2ccc(F)cc2)cc1NC(=O)Nc1c(Cl)cccc1Cl)C1CCCCC1 [Example 386, methyl(2S)-cyclohexyl({[3-({[(2,6-dichlorophenyl)amino]carbonyl}amino)-5-(4-fluorophenyl)-2-thienyl]carbonyl}amino)ethanoate]",4300,–
"O=C(Nc1cc(-c2ccc(F)cc2)sc1C(=O)N[C@H](C(=O)O)C1CCCCC1)Nc1c(Cl)cccc1Cl [Example 387, (2S)-cyclohexyl({[3-({[(2,6-dichlorophenyl)amino]carbonyl}amino)-5-(4-fluorophenyl)-2-thienyl]carbonyl}amino)ethanoic acid]",430,–
"Cc1cc(C(=O)O)c(NC(=O)Nc2c(Cl)cccc2Cl)s1 [Example 388, 2-({[(2,6-dichlorophenyl)amino]carbonyl}amino)-5-methyl-3-thiophenecarboxylic acid]",19700,–
"COC(=O)[C@@H](NC(=O)c1cc(C)sc1NC(=O)Nc1c(Cl)cccc1Cl)C1CCCCC1 [Example 389, methyl(2S)-cyclohexyl({[2-({[(2,6-dichlorophenyl)amino]carbonyl}amino)-5-methyl-3-thienyl]carbonyl}amino)ethanoate]",15600,–
"Cc1cc(C(=O)N[C@H](C(=O)O)C2CCCCC2)c(NC(=O)Nc2c(Cl)cccc2Cl)s1 [Example 390, (2S)-cyclohexyl({f[2-({[(2,6-dichlorophenyl)amino]carbonyl}amino)-5-methyl-3-thienyl]carbonyl}amino)ethanoic acid]",17500,–
"O=C(Nc1sc(-c2ccccc2)cc1C(=O)O)Nc1c(Cl)cc(Cl)cc1Cl [Example 391, 5-phenyl-2-({[(2,4,6-trichlorophenyl)amino]carbonyl}amino)-3-thiophenecarboxylic acid]",6780,–
"COC(=O)[C@@H](NC(=O)c1cc(-c2ccccc2)sc1NC(=O)Nc1c(Cl)cc(Cl)cc1Cl)C1CCCCC1 [Example 392, methyl(2S)-cyclohexyl({[5-phenyl-2-({[(2,4,6-trichlorophenyl)amino]carbonyl}amino)-3-thienyl]carbonyl}amino)ethanoate]",1320,–
"CC(C)c1cc(C(=O)O)c(NC(=O)Nc2c(Cl)cccc2Cl)s1 [Example 394, 2-({[(2,6-dichlorophenyl)amino]carbonyl}amino)-5-(1-methylethyl)-3-thiophenecarboxylic acid]",19300,–
"COC(=O)[C@@H](NC(=O)c1cc(C(C)C)sc1NC(=O)Nc1c(Cl)cccc1Cl)C1CCCCC1 [Example 395, methyl(2S)-cyclohexyl({[2-({[(2,6-dichlorophenyl)amino]carbonyl}amino)-5-(1-methylethyl)-3-thienyl]carbonyl}amino)ethanoate]",–,4490
"O=C(Nc1sc(Cc2ccccc2)cc1C(=O)O)Nc1c(Cl)cccc1Cl [Example 397, 2-({[(2,6-dichlorophenyl)amino]carbonyl}amino)-5-(phenylmethyl)-3-thiophenecarboxylic acid]",–,14300
"COC(=O)[C@@H](NC(=O)c1cc(Cc2ccccc2)sc1NC(=O)Nc1c(Cl)cccc1Cl)C1CCCCC1 [Example 398, methyl(2S)-cyclohexyl({[2-({[(2,6-dichlorophenyl)amino]carbonyl}amino)-5-(phenylmethyl)-3-thienyl]carbonyl}amino)ethanoate]",–,3060
O=C(Nc1sc(Cc2ccccc2)cc1C(=O)N[C@H](C(=O)O)C1CCCCC1)Nc1c(Cl)cccc1Cl [Example 399],–,6700
"O=C(Nc1cc(-c2ccncc2)sc1C(=O)O)Nc1c(Cl)cccc1Cl [Example 400, 3-({[(2,6-dichlorophenyl)amino]carbonyl}amino)-5-(4-pyridinyl)-2-thiophenecarboxylic acid]",–,1830
"COC(=O)[C@@H](NC(=O)c1sc(-c2ccncc2)cc1NC(=O)Nc1c(Cl)cccc1Cl)C1CCCCC1 [Example 401, methyl(2S)-cyclohexyl({[3-({[(2,6-dichlorophenyl)amino]carbonyl}amino)-5-(4-pyridinyl)-2-thienyl]carbonyl}amino)ethanoate]",–,14900
"O=C(Nc1cc(-c2cccnc2)sc1C(=O)O)Nc1c(Cl)cccc1Cl [Example 403, 3-({[(2,6-dichlorophenyl)amino]carbonyl}amino)-5-(3-pyridinyl)-2-thiophenecarboxylic acid]",–,4220

Structure (SMILES),IC50 [1] [nM],IC50 [2] [nM]
"COC(=O)[C@@H](NC(=O)c1sc(-c2cccnc2)cc1NC(=O)Nc1c(Cl)cccc1Cl)C1CCCCC1 [Example 404, methyl(2S)-cyclohexyl({[3-({[(2,6-dichlorophenyl)amino]carbonyl}amino)-5-(3-pyridinyl)-2-thienyl]carbonyl}amino)ethanoate]",–,13200
O=C(Nc1cc(-c2cccnc2)sc1C(=O)N[C@H](C(=O)O)C1CCCCC1)Nc1c(Cl)cccc1Cl [Example 405],–,230
"N#Cc1ccc(-c2cc(NC(=O)Nc3c(Cl)cccc3Cl)c(C(=O)O)s2)cc1 [Example 406, 5-(4-cyanophenyl)-3-({[(2,6-dichlorophenyl)amino]carbonyl}amino)-2-thiophenecarboxylic acid]",–,1110
"N#Cc1ccc(-c2cc(NC(=O)Nc3c(Cl)cccc3Cl)c(C(=O)N[C@H](C(=O)O)C3CCCCC3)s2)cc1 [Example 407, (2S)-({[5-(4-cyanophenyl)-3-({[(2,6-dichlorophenyl)amino]carbonyl}amino)-2-thienyl]carbonyl}amino)(cyclohexyl)ethanoic acid]",–,370
"COc1ccc(-c2cc(NC(=O)Nc3c(Cl)cccc3Cl)c(C(=O)O)s2)cc1 [Example 408, 3-({[(2,6-dichlorophenyl)amino]carbonyl}amino)-5-[4-(methyloxy)phenyl]-2-thiophenecarboxylic acid]",–,1150
"COc1ccc(-c2cc(NC(=O)Nc3c(Cl)cccc3Cl)c(C(=O)N[C@H](C(=O)O)C3CCCCC3)s2)cc1 [Example 409, (2S)-cyclohexyl[({3-({[(2,6-dichlorophenyl)amino]carbonyl}amino)-5-[4-(methyloxy)phenyl]-2-thienyl}carbonyl)amino]ethanoic acid]",–,93
"O=C(Nc1cc(-c2ccccc2)sc1C(=O)O)Nc1c(Cl)cccc1Cl [Example 410, 3-({[(2,6-dichlorophenyl)amino]carbonyl}amino)-5-phenyl-2-thiophenecarboxylic acid]",–,890
"O=C(Nc1cc(-c2ccccc2)sc1C(=O)N[C@H](C(=O)O)C1CCCCC1)Nc1c(Cl)cccc1Cl [Example 411, (2S)-cyclohexyl({[3-({[(2,6-dichlorophenyl)amino]carbonyl}amino)-5-phenyl-2-thienyl]carbonyl}amino)ethanoic acid]",–,120
"COc1ccc(-c2cc(C(=O)O)c(NC(=O)Nc3c(Cl)cccc3Cl)s2)cc1 [Example 412, 2-({[(2,6-dichlorophenyl)amino]carbonyl}amino)-5-[4-(methyloxy)phenyl]-3-thiophenecarboxylic acid]",–,1040
"O=C(Nc1sc(Br)cc1C(=O)O)Nc1c(Cl)cccc1Cl [Example 413, 5-bromo-2-({[(2,6-dichlorophenyl)amino]carbonyl}amino)-3-thiophenecarboxylic acid]",–,10600
"O=C(Nc1sc(-c2cccnc2)cc1C(=O)O)Nc1c(Cl)cccc1Cl [Example 414, 2-({[(2,6-dichlorophenyl)amino]carbonyl}amino)-5-(3-pyridinyl)-3-thiophenecarboxylic acid]",–,2720
"O=C(Nc1sc(-c2cccnc2)cc1C(=O)N[C@H](C(=O)O)C1CCCCC1)Nc1c(Cl)cccc1Cl [Example 415, (2S)-cyclohexyl({[2-({[(2,6-dichlorophenyl)amino]carbonyl}amino)-5-(3-pyridinyl)-3-thienyl]carbonyl}amino)ethanoic acid]",–,770
"COc1cccc(-c2cc(C(=O)O)c(NC(=O)Nc3c(Cl)cccc3Cl)s2)c1 [Example 416, 2-({[(2,6-dichlorophenyl)amino]carbonyl}amino)-5-[3-(methyloxy)phenyl]-3-thiophenecarboxylic acid]",–,4130
"COc1cccc(-c2cc(C(=O)N[C@H](C(=O)O)C3CCCCC3)c(NC(=O)Nc3c(Cl)cccc3Cl)s2)c1 [Example 417, (2S)-cyclohexyl[({2-({[(2,6-dichlorophenyl)amino]carbonyl}amino)-5-[3-(methyloxy)phenyl]-3-thienyl}carbonyl)amino]ethanoic acid]",–,360
"O=C(Nc1sc(-c2ccc(F)cc2)cc1C(=O)O)Nc1c(Cl)cccc1Cl [Example 418, 2-({[(2,6-dichlorophenyl)amino]carbonyl}amino)-5-(4-fluorophenyl)-3-thiophenecarboxylic acid]",–,2970
